Results as given in US12357631B2 (priority 2018, dated 2025).

molecular target: PB2 (Influenza A virus, UniProt P03428); experiment: biochemical; assay type: binding
Sequence (P03428 whole entry, looked up): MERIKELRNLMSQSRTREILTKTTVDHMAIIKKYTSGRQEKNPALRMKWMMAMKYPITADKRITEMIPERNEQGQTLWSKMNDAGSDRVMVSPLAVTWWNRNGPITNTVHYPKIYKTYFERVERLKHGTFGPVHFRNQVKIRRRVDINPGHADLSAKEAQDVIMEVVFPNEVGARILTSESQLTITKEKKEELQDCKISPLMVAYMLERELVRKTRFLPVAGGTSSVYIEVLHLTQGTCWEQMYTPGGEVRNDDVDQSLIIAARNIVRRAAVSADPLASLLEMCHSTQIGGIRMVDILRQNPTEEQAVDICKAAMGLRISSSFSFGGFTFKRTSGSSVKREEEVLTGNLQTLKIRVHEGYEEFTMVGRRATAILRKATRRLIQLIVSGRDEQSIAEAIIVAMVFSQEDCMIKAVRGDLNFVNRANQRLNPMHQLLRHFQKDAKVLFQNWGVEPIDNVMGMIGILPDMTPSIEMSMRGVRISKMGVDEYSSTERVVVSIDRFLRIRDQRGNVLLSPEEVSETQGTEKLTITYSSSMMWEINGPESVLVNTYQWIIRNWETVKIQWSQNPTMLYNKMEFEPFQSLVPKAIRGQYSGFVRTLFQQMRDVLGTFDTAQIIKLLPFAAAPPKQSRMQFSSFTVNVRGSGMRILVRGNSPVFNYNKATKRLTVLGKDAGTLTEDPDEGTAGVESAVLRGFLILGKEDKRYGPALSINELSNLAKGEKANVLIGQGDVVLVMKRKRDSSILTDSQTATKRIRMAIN

Compound | EC50 [µM]
O=C(O)CCc1ccnc(C(=O)N[C@H]2CCC[C@@H](Nc3nc(-c4c[nH]c5ncc(F)cc45)ncc3F)C2)c1 [Compound A49] | < 5
O=C(NCc1ccc(F)cc1)OCc1ccnc(C(=O)N[C@@H]2CCC[C@H](Nc3nc(-c4c[nH]c5ncc(F)cc45)ncc3F)C2)c1 [Compound A92] | > 100
O=C(O)COCCOCCOCCC(=O)N[C@H]1CCC[C@@H](Nc2nc(-c3c[nH]c4ncc(F)cc34)ncc2F)C1 [Compound A269] | 5 to 25
O=C(N[C@@H]1CCC[C@H](Nc2nc(-c3c[nH]c4ncc(F)cc34)ncc2F)C1)c1cc(CCCOCCOCc2ccc(F)cc2)ccn1 [Compound A36] | > 100
CCOCCCc1cccc(CCN(C)C(=O)N[C@H]2CCC[C@@H](Nc3nc(-c4c[nH]c5ncc(F)cc45)ncc3F)C2)n1 [Compound A213] | > 100
O=C(NCCc1ccc(Oc2ccccc2)cc1)OCc1ccnc(C(=O)N[C@H]2CCC[C@@H](Nc3nc(-c4c[nH]c5ncc(F)cc45)ncc3F)C2)c1 [Compound A100] | > 100
CCOCCOCCOCCNC(=O)N[C@@H]1CCC[C@H](Nc2nc(-c3c[nH]c4ncc(F)cc34)ncc2F)C1 [Compound A168] | 5 to 25
CCOCCc1ccnc(C(=O)N[C@H]2CCC[C@@H](Nc3nc(-c4c[nH]c5ncc(F)cc45)ncc3F)C2)c1 [Compound A44] | 25 to 50
CCCOCCOCCCCN(C)C(=O)N[C@H]1CCC[C@@H](Nc2nc(-c3c[nH]c4ncc(F)cc34)ncc2F)C1 [Compound A243] | > 100
Cc1ccnc(C(=O)N[C@H]2CCC[C@@H](Nc3nc(-c4c[nH]c5ncc(F)cc45)ncc3F)C2)c1 [Compound A53] | 5 to 25
CCCCCOCCOCC(=O)N[C@@H]1CCC[C@H](Nc2nc(-c3c[nH]c4ncc(F)cc34)ncc2F)C1 [Compound A272] | 50 to 100
CCOCCOCCCC1CCCN(C(=O)N[C@@H]2CCC[C@H](Nc3nc(-c4c[nH]c5ncc(F)cc45)ncc3F)C2)C1 (stereo partly shown) [Compound A4] | 50 to 100
CC(NC(=O)OCc1ccnc(C(=O)N[C@H]2CCC[C@@H](Nc3nc(-c4c[nH]c5ncc(F)cc45)ncc3F)C2)c1)c1ccc(F)cc1 (stereo partly shown) [Compound A131] | > 100
CCOc1ccc(CNC(=O)OCc2cc(C(=O)N[C@H]3CCC[C@@H](Nc4nc(-c5c[nH]c6ncc(F)cc56)ncc4F)C3)ncc2F)cc1 [Compound A147] | > 100
CCOCCOCCOCCNC(=O)N[C@H]1CCC[C@@H](Nc2nc(-c3ccnc(Cl)c3)ncc2F)C1 [Compound A197] | > 100
CCCCCCCCCCCNC(=O)N[C@@H]1CCC[C@H](Nc2nc(-c3c[nH]c4ncc(F)cc34)ncc2F)C1 [Compound A174] | 50 to 100
CCCCCCCCCCC(=O)N[C@@H]1CCC[C@H](Nc2nc(-c3c[nH]c4ncc(F)cc34)ncc2F)C1 [Compound A271] | 50 to 100
CCc1cccc(OCCOCc2ccnc(C(=O)N[C@H]3CCC[C@@H](Nc4nc(-c5c[nH]c6ncc(F)cc56)ncc4F)C3)c2)c1 [Compound A72] | 25 to 50
COCCOCCCCCCN(C)C(=O)N[C@H]1CCC[C@@H](Nc2nc(-c3c[nH]c4ncc(F)cc34)ncc2F)C1 [Compound A244] | > 100
CCOCc1cccc(COCc2ccnc(C(=O)N[C@H]3CCC[C@@H](Nc4nc(-c5c[nH]c6ncc(F)cc56)ncc4F)C3)c2)c1 [Compound A71] | > 100
CN(CCOCCOCCOCCO)C(=O)N[C@H]1CCC[C@@H](Nc2nc(-c3c[nH]c4ncc(F)cc34)ncc2F)C1 [Compound A191] | 25 to 50
CCCCc1ccc(C(=O)N[C@@H]2CCC[C@H](Nc3nc(-c4c[nH]c5ncc(F)cc45)ncc3F)C2)nc1 [Compound A58] | 50 to 100
CCOCCOCCCCCN(Cc1ccccc1)C(=O)N[C@@H]1CCC[C@H](Nc2nc(-c3c[nH]c4ncc(F)cc34)ncc2F)C1 [Compound A182] | 50 to 100
O=C(NCc1ccc(Oc2ccccc2)cc1)OCc1ccnc(C(=O)N[C@H]2CCC[C@@H](Nc3nc(-c4c[nH]c5ncc(F)cc45)ncc3F)C2)c1 [Compound A102] | > 100
CCOCCOCCCC1CCN(C(=O)N[C@H]2CCC[C@@H](Nc3nc(-c4c[nH]c5ncc(F)cc45)ncc3F)C2)C1 (stereo partly shown) [Compound A11] | 5 to 25
